Measurements published in patent US20050239656A1, “Pyridine compounds or salts thereof and herbicides containing the same” (priority 2002, published 2005).

tested on: corn; assay: Test Example 1: foliage treatment, upland pot test; type: in vivo, Zea mays L.; details: crop, active ingredient 1000 g/ha, observed 18th to 23rd day, 0 = non-treated, 100 = complete kill
How it was run: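 In this upland pot foliage test, corn plants at 2.1 to 3.2 leaf stages were sprayed by a small size sprayer. The spray was a conventionally formulated wettable powder or emulsifiable concentrate weighed to a set active ingredient amount, diluted in water at 500 L/ha, plus 0.1% (v/v) agricultural spreader. Visual assessment on days 18 to 23 gave growth controlling degree (%), where 0 equals untreated and 100 means complete kill.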

| Compound | Growth controlling degree (%) Corn [%] |
| --- | --- |
| COC(=O)N(C)C(c1cnccc1C(F)(F)F)c1cccc2ccccc12 (stereo not shown) [I-46] | 40 |

tested on: tall morningglory; assay: Test Example 1: foliage treatment, upland pot test; type: in vivo, Ipomoea purpurea L.; details: active ingredient 1000 g/ha, observed 18th to 23rd day, 0 = non-treated, 100 = complete kill
From the text: Upland field soil was put into a 1/170,000 ha pot, and seed of various plants were sown. Then, when the plants reached predetermined leaf stages ((1) barnyardgrass: 1.3 to 2.8 leaf stages, (2) crabgrass: 1.0 to 2.8 leaf stages, (3) green foxtail: 1.3 to 2.6 leaf stages, (4) redroot pigweed: 0.1 to 1.2 leaf stages, (5) prickly sida: 0.1 to 1.2 leaf stages, (6) velvetleaf: 0.1 to 1.2 leaf stages, (7) tall morningglory: 0.1 to 1.5 leaf stages, (8) rice: 1.2 to 2.6 leaf stages, (9) wheat: 1.3 to 2.4 leaf stages, (10) corn, 2.1 to 3.2 leaf stages, (11) soybean: 0.1 to 0.4 leaf stage), a wettable powder or emulsifiable concentrate having the compound of the present invention formulated in accordance with a usual formulation method, was weighed so that the active ingredient would be a predetermined amount, and diluted with water in an amount of 500 L/ha. To the diluted solution, 0.1% (v/v) of agricultural spreader was added. The herbicide thus adjusted was applied by a small size sprayer for foliage treatment. On the 18th to 23rd days after the application of the herbicide, the growth of the respective plants was visually observed, and the herbicidal effects were evaluated by the growth controlling degrees (%) ranging from 0 (equivalent to the non-treated plot) to 100 (complete kill), whereby the results shown in Table 3, were obtained.

| Compound | Growth controlling degree (%) Tall morningglory [%] |
| --- | --- |
| COC(=O)N(C)C(c1cnccc1C(F)(F)F)c1cccc2ccccc12 (stereo not shown) [I-46] | 95 |

tested on: wheat; assay: Test Example 2: soil surface treatment, upland pot test; type: in vivo, Triticum spp.; details: active ingredient 1000 g/ha, observed 20th to 28th day
How it was run: (§1)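 Upland soil in pots of 1/170,000 ha is sown; on day 1 after sowing the formulated compound (wettable powder or emulsifiable concentrate, predetermined a.i. amount, water volume 1,500 L/ha) is applied to the soil surface with a small sprayer. Percent control is judged by eye 20–28 days later.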

| Compound | Growth controlling degree (%) wheat [%] |
| --- | --- |
| COC(=O)N(C)C(c1cnccc1C(F)(F)F)c1cccc2ccccc12 (stereo not shown) [I-46] | 30 |

tested on: velvetleaf; assay: Test Example 1: foliage treatment, upland pot test; type: in vivo, Abutilon theophrasti MEDIC.; details: active ingredient 1000 g/ha, observed 18th to 23rd day, 0 = non-treated, 100 = complete kill

| Compound | Growth controlling degree (%) Velvetleaf [%] |
| --- | --- |
| COC(=O)N(C)C(c1cnccc1C(F)(F)F)c1cccc2ccccc12 (stereo not shown) [I-46] | 95 |

tested on: rice (var. Nihonbare); assay: Test Example 3: paddy pot test, transplanted rice; type: in vivo, Oryza sativa L.; details: active ingredient 500 g/ha, applied 4th day after transplantation, visually observed 21st day after application, 0 = non-treated, 100 = complete kill
How it was run: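 Rice (2-leaf stage) was transplanted 3 cm deep into puddled, leveled paddy soil under 3–4 cm flooding. On day 4 after transplanting, diluted wettable powder or emulsifiable concentrate was pipetted onto the water at a predetermined active-ingredient dose. Growth control (0 = untreated, 100 = complete kill) was scored visually 21 days later.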

| Compound | Growth controlling degree (%) Rice [%] |
| --- | --- |
| COC(=O)N(C)C(c1cnccc1C(F)(F)F)c1cccc2ccccc12 (stereo not shown) [I-46] | 10 |

tested on: crabgrass; assay: Test Example 1: foliage treatment, upland pot test; type: in vivo, Digitaria sanguinalis L.; details: active ingredient 1000 g/ha, observed 18th to 23rd day, 0 = non-treated, 100 = complete kill

| Compound | Growth controlling degree (%) Crabgrass [%] |
| --- | --- |
| COC(=O)N(C)C(c1cnccc1C(F)(F)F)c1cccc2ccccc12 (stereo not shown) [I-46] | 95 |

tested on: barnyardgrass; assay: Test Example 3: paddy pot test, application under submerged conditions; type: in vivo, Echinochloa crus-galli L.; details: active ingredient 500 g/ha; submerged application at 0.5 leaf stage; visually observed 14 days after application; 0 = non-treated, 100 = complete kill
How it was run: (§2)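 After sowing seeds and planting wapato tubers in flooded paddy soil, an aqueous dilution of the formulated compound was added to the 3–4 cm flood water at early leaf stage. Percent growth control relative to the untreated plot was assessed visually on day 14.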

| Compound | Growth controlling degree (%) Barnyardgrass [%] |
| --- | --- |
| COC(=O)N(C)C(c1cnccc1C(F)(F)F)c1cccc2ccccc12 (stereo not shown) [I-46] | 100 |

tested on: corn; assay: Test Example 2: soil surface treatment, upland pot test; type: in vivo, Zea mays L.; details: active ingredient 1000 g/ha, observed 20th to 28th day
How it was run: as §1

| Compound | Growth controlling degree (%) Corn [%] |
| --- | --- |
| COC(=O)N(C)C(c1cnccc1C(F)(F)F)c1cccc2ccccc12 (stereo not shown) [I-46] | 10 |

tested on: redroot pigweed; assay: as above; type: in vivo, Amaranthus retroflexus L.; details: active ingredient 1000 g/ha, observed 20th to 28th day
How it was run: as §1

| Compound | Growth controlling degree (%) Redroot pigweed [%] |
| --- | --- |
| COC(=O)N(C)C(c1cnccc1C(F)(F)F)c1cccc2ccccc12 (stereo not shown) [I-46] | 10 |

tested on: soybean; assay: Test Example 1: foliage treatment, upland pot test; type: in vivo, Glycine max Merr.; details: crop, active ingredient 1000 g/ha, observed 18th to 23rd day, 0 = non-treated, 100 = complete kill
How it was run: (§3)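 Each plant species was sprayed once on its foliage, with wheat at 1.3–2.4, soybean at 0.1–0.4, barnyardgrass at 1.3–2.8 and rice at 1.2–2.6 leaves. Visual ratings of growth inhibition, 0 to 100%, followed 18–23 days later.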

| Compound | Growth controlling degree (%) Soybean [%] |
| --- | --- |
| COC(=O)N(C)C(c1cnccc1C(F)(F)F)c1cccc2ccccc12 (stereo not shown) [I-46] | 95 |

tested on: green foxtail; assay: Test Example 2: soil surface treatment, upland pot test; type: in vivo, Setaria viridis L.; details: active ingredient 1000 g/ha, observed 20th to 28th day
How it was run: as §1

| Compound | Growth controlling degree (%) Green foxtail [%] |
| --- | --- |
| COC(=O)N(C)C(c1cnccc1C(F)(F)F)c1cccc2ccccc12 (stereo not shown) [I-46] | 95 |

tested on: japanese ribbon wapato; assay: Test Example 3: paddy pot test, application under submerged conditions; type: in vivo, Sagittaria pygniaea; details: active ingredient 500 g/ha; submerged application at primary leaf stage; visually observed 14 days after application; 0 = non-treated, 100 = complete kill
How it was run: as §2

| Compound | Growth controlling degree (%) Japanese ribbon wapato [%] |
| --- | --- |
| COC(=O)N(C)C(c1cnccc1C(F)(F)F)c1cccc2ccccc12 (stereo not shown) [I-46] | 90 |

tested on: wheat; assay: Test Example 1: foliage treatment, upland pot test; type: in vivo, Triticum spp.; details: crop, active ingredient 1000 g/ha, observed 18th to 23rd day, 0 = non-treated, 100 = complete kill
How it was run: as §3

| Compound | Growth controlling degree (%) wheat [%] |
| --- | --- |
| COC(=O)N(C)C(c1cnccc1C(F)(F)F)c1cccc2ccccc12 (stereo not shown) [I-46] | 30 |

tested on: prickly sida; assay: Test Example 2: soil surface treatment, upland pot test; type: in vivo, Sida spinosa L.; details: active ingredient 1000 g/ha, observed 20th to 28th day
How it was run: as §1

| Compound | Growth controlling degree (%) Prickly sida [%] |
| --- | --- |
| COC(=O)N(C)C(c1cnccc1C(F)(F)F)c1cccc2ccccc12 (stereo not shown) [I-46] | 60 |

tested on: japanese bulrush; assay: Test Example 3: paddy pot test, application under submerged conditions; type: in vivo, Scirpus juncoides; details: active ingredient 500 g/ha; submerged application at 0.5 leaf stage; visually observed 14 days after application; 0 = non-treated, 100 = complete kill
How it was run: as §2

| Compound | Growth controlling degree (%) Japanese bulrush [%] |
| --- | --- |
| COC(=O)N(C)C(c1cnccc1C(F)(F)F)c1cccc2ccccc12 (stereo not shown) [I-46] | 100 |

tested on: barnyardgrass; assay: Test Example 1: foliage treatment, upland pot test; type: in vivo, Echinochloa crus-galli L.; details: active ingredient 1000 g/ha, observed 18th to 23rd day, 0 = non-treated, 100 = complete kill
How it was run: as §3

| Compound | Growth controlling degree (%) Barnyardgrass [%] |
| --- | --- |
| COC(=O)N(C)C(c1cnccc1C(F)(F)F)c1cccc2ccccc12 (stereo not shown) [I-46] | 80 |

tested on: velvetleaf; assay: Test Example 2: soil surface treatment, upland pot test; type: in vivo, Abutilon theophrasti MEDIC.; details: active ingredient 1000 g/ha, observed 20th to 28th day
How it was run: as §1

| Compound | Growth controlling degree (%) Velvetleaf [%] |
| --- | --- |
| COC(=O)N(C)C(c1cnccc1C(F)(F)F)c1cccc2ccccc12 (stereo not shown) [I-46] | 50 |

tested on: rice; assay: as above; type: in vivo, Oryza sativa L.; details: active ingredient 1000 g/ha, observed 20th to 28th day
How it was run: as §1

| Compound | Growth controlling degree (%) Rice [%] |
| --- | --- |
| COC(=O)N(C)C(c1cnccc1C(F)(F)F)c1cccc2ccccc12 (stereo not shown) [I-46] | 10 |

tested on: barnyardgrass; assay: as above; type: in vivo, Echinochloa crus-galli L.; details: active ingredient 1000 g/ha, observed 20th to 28th day, 0 = non-treated, 100 = complete kill
How it was run: as §1

| Compound | Growth controlling degree (%) Barnyardgrass [%] |
| --- | --- |
| COC(=O)N(C)C(c1cnccc1C(F)(F)F)c1cccc2ccccc12 (stereo not shown) [I-46] | 100 |

tested on: rice; assay: Test Example 1: foliage treatment, upland pot test; type: in vivo, Oryza sativa L.; details: crop, active ingredient 1000 g/ha, observed 18th to 23rd day, 0 = non-treated, 100 = complete kill
How it was run: as §3

| Compound | Growth controlling degree (%) Rice [%] |
| --- | --- |
| COC(=O)N(C)C(c1cnccc1C(F)(F)F)c1cccc2ccccc12 (stereo not shown) [I-46] | 30 |

tested on: green foxtail; assay: Test Example 1: foliage treatment, upland pot test; type: in vivo, Setaria viridis L.; details: active ingredient 1000 g/ha, observed 18th to 23rd day, 0 = non-treated, 100 = complete kill

| Compound | Growth controlling degree (%) Green foxtail [%] |
| --- | --- |
| COC(=O)N(C)C(c1cnccc1C(F)(F)F)c1cccc2ccccc12 (stereo not shown) [I-46] | 50 |

tested on: redroot pigweed; assay: Test Example 1: foliage treatment, upland pot test; type: in vivo, Amaranthus retroflexus L.; details: active ingredient 1000 g/ha, observed 18th to 23rd day, 0 = non-treated, 100 = complete kill

| Compound | Growth controlling degree (%) Redroot pigweed [%] |
| --- | --- |
| COC(=O)N(C)C(c1cnccc1C(F)(F)F)c1cccc2ccccc12 (stereo not shown) [I-46] | 90 |

tested on: prickly sida; assay: Test Example 1: foliage treatment, upland pot test; type: in vivo, Sida spinosa L.; details: active ingredient 1000 g/ha, observed 18th to 23rd day, 0 = non-treated, 100 = complete kill

| Compound | Growth controlling degree (%) Prickly sida [%] |
| --- | --- |
| COC(=O)N(C)C(c1cnccc1C(F)(F)F)c1cccc2ccccc12 (stereo not shown) [I-46] | 80 |

tested on: crabgrass; assay: Test Example 2: soil surface treatment, upland pot test; type: in vivo, Digitaria sanguinalis L.; details: active ingredient 1000 g/ha, observed 20th to 28th day
How it was run: as §1

| Compound | Growth controlling degree (%) Crabgrass [%] |
| --- | --- |
| COC(=O)N(C)C(c1cnccc1C(F)(F)F)c1cccc2ccccc12 (stereo not shown) [I-46] | 90 |

tested on: soybean; assay: as above; type: in vivo, Glycine max Merr.; details: active ingredient 1000 g/ha, observed 20th to 28th day
How it was run: as §1

| Compound | Growth controlling degree (%) Soyabean [%] |
| --- | --- |
| COC(=O)N(C)C(c1cnccc1C(F)(F)F)c1cccc2ccccc12 (stereo not shown) [I-46] | 0 |
